Results on three compounds are retold here after patent US6777426B2, “Imidazole and imidazoline derivatives and uses thereof” (Synaptic Pharmaceutical Corporation, priority 1997, dated 2004).

Where two headings read alike, the source gives them in different places.

The target of data set [1] is T1, human α2a adrenergic receptor (Homo sapiens, UniProt P08913).
T1 construct: expressed in transfected cells; host or cells: LM(tk−) cells (L-α2A, ATCC CRL-11180), vector pCEXV-3
T1 sequence (P08913 1-465): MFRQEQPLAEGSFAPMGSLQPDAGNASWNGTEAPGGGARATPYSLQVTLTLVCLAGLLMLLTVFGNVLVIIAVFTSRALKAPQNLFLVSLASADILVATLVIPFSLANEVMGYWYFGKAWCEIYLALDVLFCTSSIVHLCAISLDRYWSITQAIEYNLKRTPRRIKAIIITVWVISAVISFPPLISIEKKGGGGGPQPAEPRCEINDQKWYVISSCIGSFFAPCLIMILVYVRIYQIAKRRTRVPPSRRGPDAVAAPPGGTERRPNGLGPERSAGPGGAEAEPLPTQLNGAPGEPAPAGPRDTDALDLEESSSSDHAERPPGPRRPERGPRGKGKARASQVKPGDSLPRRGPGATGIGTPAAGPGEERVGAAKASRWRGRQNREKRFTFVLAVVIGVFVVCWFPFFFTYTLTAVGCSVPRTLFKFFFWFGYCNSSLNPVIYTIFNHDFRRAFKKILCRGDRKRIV
Kind of data set: Equilibrium competition binding, [3H]rauwolscine, cloned human α2a. Here is the method: (§1) Binding and functional assays were performed using stably transfected cells expressing human α adrenergic receptors. Equilibrium competition binding assays were performed with membrane preparations from cultured LM(tk−) cells stably transfected with the cloned human adrenoceptor subtypes except for a21, which was expressed In Y-1 cells, using [^3H]prazosin for α1 receptors and [^3H]rauwolscine for […].
(§2) These cell lines were prepared by transfecting cloned cDNA or cloned genomic DNA or constructs containing both genomic DNA and cDNA encoding the human a adrenergic receptors as described below.
The insert housing this coding region was a 2.5 kb Kpnl/HindIII human placenta genomic fragment which was end-blunted by either T4 polymerase or Klenow fragment of DNA polymerase. Stable cell lines were obtained by to-transfection with the plasmid pGCcos3neo (plasmid containing the α2a receptor gene) and the plasmid pGCcos3neo (plasmid containing the aminoglycoside transferase gene) into LM(tk−), CHO, and NIH3T3 cells, using calcium phosphate technique. The cells were grown in a controlled environment (37° C., 5% CO2) as monolayers in Dulbecco's modified Eagle's Medium (GIBCO, Grand Island, N.Y.) containing 25 mM glucose and supplemented with 10% bovine calf serum, 100 units/mL penicillin g, and […] streptomycin sulfate.
(§3) The stable cell lines described above were scraped from culture flasks into 5 mL of 5 mM Tris-HCl, […], pH 7.5, and lysed by sonication. The cell lysates were centrifuged at 1,000 rpm for 5 min. at 4° C., and the supernatant was centrifuged at 30,000×g for 20 min. at 4° C. The pellet was suspended in 50 mM Tris-HCl, 1 mM MgCl2, and 0.1% ascorbic acid at pH 7.5. Binding of the α2 antagonist [^3H]rauwolscine (0.5 nM) or the α1 antagonist [^3H]prazosin (0.5 nM) to membrane preparations of LM(tk−) cells was done in a final volume of 0.25 mL and incubated at 37° C. for 20 min. Nonspecific binding was determined in the presence of […]. The reaction was stopped by filtration through GF/B filters using a cell harvester.

Data set [2] concerns the target T2, human α2b adrenergic receptor (Homo sapiens, UniProt P18089).
T2 construct: expressed in transfected cells; host or cells: stably transfected cells, vector pcEXV-3; deposited line L-NGC-α2B (ATCC CRL-10275)
T2 sequence (P18089 1-450): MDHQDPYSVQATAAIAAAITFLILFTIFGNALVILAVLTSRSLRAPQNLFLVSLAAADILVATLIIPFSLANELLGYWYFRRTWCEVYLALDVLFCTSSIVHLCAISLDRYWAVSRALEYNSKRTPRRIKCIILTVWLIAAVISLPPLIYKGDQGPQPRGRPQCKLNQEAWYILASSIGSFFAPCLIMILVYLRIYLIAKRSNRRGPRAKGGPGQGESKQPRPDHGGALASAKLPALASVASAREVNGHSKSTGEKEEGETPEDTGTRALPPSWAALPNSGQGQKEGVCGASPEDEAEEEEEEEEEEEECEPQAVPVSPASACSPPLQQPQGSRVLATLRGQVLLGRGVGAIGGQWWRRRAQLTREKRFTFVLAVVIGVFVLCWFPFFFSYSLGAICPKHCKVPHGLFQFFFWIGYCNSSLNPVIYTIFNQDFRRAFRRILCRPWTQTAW
Description: Equilibrium competition binding, [3H]rauwolscine, cloned human α2b. The method, then: as §1, §2
Stable cell lines were selected as described above.
as §3

The target of data set [3] is T3, human α2c adrenergic receptor (Homo sapiens, UniProt P18825).
T3 construct: The entire coding region of α2c (1383 bp), including 2 bp of 5′ UT and 400 bp of 3′ UT; expressed in transfected cells; host or cells: LM(tk−) cells (L-α2c, ATCC CRL-11181), vector pCEXV-3
T3 sequence (P18825 1-462): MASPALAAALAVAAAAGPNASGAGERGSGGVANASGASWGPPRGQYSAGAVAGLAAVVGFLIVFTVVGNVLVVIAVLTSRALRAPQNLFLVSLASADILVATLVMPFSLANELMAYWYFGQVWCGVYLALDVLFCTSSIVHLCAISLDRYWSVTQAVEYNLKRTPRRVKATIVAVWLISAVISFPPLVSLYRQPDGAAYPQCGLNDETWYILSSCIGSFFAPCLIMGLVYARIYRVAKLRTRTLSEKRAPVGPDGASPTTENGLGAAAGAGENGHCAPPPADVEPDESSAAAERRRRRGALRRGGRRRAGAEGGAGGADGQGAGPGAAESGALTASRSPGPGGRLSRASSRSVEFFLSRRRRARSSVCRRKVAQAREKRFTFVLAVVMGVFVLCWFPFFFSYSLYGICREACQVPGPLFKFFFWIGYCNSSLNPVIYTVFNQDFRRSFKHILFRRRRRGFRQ
Kind of data set: Equilibrium competition binding, [3H]rauwolscine, cloned human α2c. The method, then:
as §1, §2
The insert housing this coding region was a 1.8 kb Ncol/EcoR1 human spleen genomic fragment which was end-blunted by either T4 polymerase or Klenow fragment of DNA polymerase. Stable cell lines were selected as described above.
as §3

The target of data set [4] is T1, human α2a adrenergic receptor. Kind of data set: α2 agonist activity: inhibition of forskolin-stimulated cAMP synthesis, α2a cells. The data set is classed as cell-based. Particulars: for α2a IA (Intrinsic Activity): inhibition of forskolin-stimulated cAMP, cloned human α2a. The method, then: as §1, §2
(§4) The agonist activity (expressed as pEC50) was measured as a function of the ability to inhibit the forskolin-stimulated synthesis of cyclic adenosine monophosphate (cAMP). The stably transfected cells were incubated in Ham's F10 with 5 mM theophylline, 10 mM HEPES, 17 mM pargyline, and/or appropriate concentrations of forskolin for 20 min. at 37° C. in 5% CO2. The tested compounds were then added to a final concentration of 0.001 nM to 1 mM and incubated for an additional 15 min. at 37° C. in 5% CO2. The medium was aspirated and the reaction was stopped by the addition of 100 mM HCl. […] The plates were stored at 4° C. for 15 min. and assayed to determine the linear concentration of cAMP. The appropriate dilution was interpolated from the standard curve of cold cAMP. The assessment of cAMP formation was determined by radioimmunoassay (cAMP radioimmunoassay kit; Advanced magnetics, Cambridge, Mass.). Radioactivity was quantified using a Packard COBRA Auto Gamma counter equipped with data reduction software.

Data set [5] has as its target T2, human α2b adrenergic receptor. Kind of data set: α2 agonist activity: inhibition of forskolin-stimulated cAMP synthesis, α2b cells. The data set is classed as cell-based. The method, then:
as §1, §2, §4

Data set [6] addresses T3, human α2c adrenergic receptor. Description: α2 agonist activity: inhibition of forskolin-stimulated cAMP synthesis, α2c cells. The data set is classed as cell-based. The method, then:
as §1, §2, §4

[7] abbreviates: cloned human α2a, membrane preparations, [3H]rauwolscine, read-out: α2a pKi (converted).
Setting [8] is: cloned human α2b, membrane preparations, [3H]rauwolscine, read-out: α2b pKi (converted).
Setting [9] is: cloned human α2c, membrane preparations, [3H]rauwolscine, read-out: α2c pKi (converted).
[10] abbreviates: inhibition of forskolin-stimulated cAMP, cloned human α2b.
Where [11] appears, read: inhibition of forskolin-stimulated cAMP, cloned human α2b, read-out: α2b pEC50 (converted).
Where [12] appears, read: inhibition of forskolin-stimulated cAMP, cloned human α2c.
[13] abbreviates: inhibition of forskolin-stimulated cAMP, cloned human α2c, read-out: α2c pEC50 (converted).

Regarding `Cc1nc2c(c(C)c1NC1=NCCN1)CCC2` [Example 30, 2-(5,6-Cyclopenteno-2,4-dimethyl-pyrid-3-yl)amino-2-imidazoline], the Ki is 17.8 nM in data set [1] (setting [7]), 36.3 nM in data set [2] (setting [8]) and 309 nM in data set [3] (setting [9]). The EC50 was 2.95 nM in data set [4], 148 nM in data set [5] (setting [11]) and 6.31 nM in data set [6] (setting [13]). Besides, the “α2a IA (Intrinsic Activity)” value in data set [4] is “(1.00)”. Besides, the “α2b IA (Intrinsic Activity)” value in data set [5] (setting [10]) was “(0.43)”. Besides, in data set [6] (setting [12]), the “α2c IA (Intrinsic Activity)” value is on record as “(1.00)”.

Compound `c1cc2c(cc1NC1=NCCN1)CCC2` [Example 1, 2-(5-Indanylamino)-2-imidazoline] came in with a melting point of 41 to 42 °C. The Ki in data set [1] (setting [7]) is 1.15 nM. Besides, the Ki in data set [2] (setting [8]) was 2.88 nM. Besides, the Ki in data set [3] (setting [9]) was 13.8 nM. Also, in data set [4], the EC50 was 14.8 nM and the “α2a IA (Intrinsic Activity)” value was “(0.48)”. Also, in data set [5] (setting [10]), the “α2b IA (Intrinsic Activity)” value was “(0.53)”. Also, the EC50 in data set [5] (setting [11]) was 36.3 nM. Further, the “α2c IA (Intrinsic Activity)” value in data set [6] (setting [12]) is reported as “(1.00)”. For the same compound, in data set [6] (setting [13]), the EC50 was 11.5 nM.

Take `c1nc2c(cc1NC1=NCCN1)CCC2` [Example 21, 2-(2,3-Cyclopentenopyrid-5-yl)amino-2-imidazoline]: the Ki in data set [1] is 50.1 nM; in data set [2], 166 nM; in data set [3] it was 457 nM. The figures for the EC50 in data set [4], in data set [5] and in data set [6] were 389 nM, 1950 nM and 16.2 nM, respectively. Also, in data set [4], the “α2a IA (Intrinsic Activity)” value was “(0.58)”. Moreover, the “α2b IA (Intrinsic Activity)” value in data set [5] (setting [10]) is given as “(0.55)”. Moreover, the “α2c IA (Intrinsic Activity)” value in data set [6] (setting [12]) was “(1.00)”.

The term melting point denotes the temperature, or range, at which the solid turns liquid.
